The subject of data set [1] is HepG2. The data set can be described thus: Cytotoxicity against human HepG2 cells assessed as growth inhibition after 72 hrs by MTT assay. The note with it: HepG2, 72 h. The format is functional, cell-based.
Data set [2] has as its system A549. The data set can be described thus: Cytotoxicity against human A549 cells assessed as growth inhibition after 72 hrs by MTT assay. The format is functional, cell-based. To be noted: A549, 72 h.
The test system of data set [3] is MCF7. The data set can be described thus: Cytotoxicity against human MCF7 cells assessed as growth inhibition after 72 hrs by MTT assay. To be noted: MCF7, 72 h. The data set is classed as functional, cell-based.
Data set [4] relates to L02. The data set can be described thus: Cytotoxicity against human L02 cells assessed as growth inhibition after 72 hrs by MTT assay. The data set is classed as cell-based. To be noted: L02, 72 h.
Data set [5] has as its system A549. The data set can be described thus: Induction of morphological changes in human A549 cells assessed as irregular shape at 10 to 30 nM after 72 hrs by DAPI staining-based fluorescence microscopic method. The data set is classed as functional, cell-based.
Data set [6] concerns L02. The data set can be described thus: Induction of apoptosis in human L02 cells assessed as nuclear fragmentation at 10 to 30 nM after 72 hrs by DAPI staining-based fluorescence microscopic method. The format is cell-based. To be noted: l02, 72 h, 0.03 µM.
The test system of data set [7] is L02. The data set can be described thus: Induction of apoptosis in human L02 cells assessed as decrease in cell number at 10 to 30 nM after 72 hrs by DAPI staining-based fluorescence microscopic method. To be noted: l02, 72 h, 0.03 µM.
Data set [8] has as its system L02. The data set can be described thus: Induction of morphological changes in human L02 cells assessed as irregular shape at 10 to 30 nM after 72 hrs by DAPI staining-based fluorescence microscopic method. To be noted: l02, 72 h, 0.03 µM. The data set is classed as cell-based.
The subject of data set [9] is A549. The data set can be described thus: Induction of apoptosis in human A549 cells assessed as nuclear fragmentation at 10 to 30 nM after 72 hrs by DAPI staining-based fluorescence microscopic method. The format is functional, cell-based.
For data set [10], the system named is A549. The data set can be described thus: Induction of apoptosis in human A549 cells assessed as decrease in cell number at 10 to 30 nM after 72 hrs by DAPI staining-based fluorescence microscopic method. The data set is classed as functional.
The nature of data set [11]: Selectivity index, ratio of IC50 for human L02 cells to IC50 for human A549 cells. The format is toxicity. The note with it: L02 cells versus A549 cells, read-out: Ratio IC50.
Data set [12] has as its system HepG2. The data set can be described thus: Potency index, ratio of doxorubicin IC50 to test compound IC50 for human HepG2 cells. The format is functional.
Data set [13] has as its system HepG2. The data set can be described thus: Potency index, ratio of VP-16 IC50 to test compound IC50 for human HepG2 cells. The data set is classed as functional.
Data set [14] has as its system A549. The data set can be described thus: Potency index, ratio of doxorubicin IC50 to test compound IC50 for human A549 cells. The data set is classed as functional.
Data set [15] deals with A549. The data set can be described thus: Potency index, ratio of VP-16 IC50 to test compound IC50 for human A549 cells. The format is functional.
Data set [16] has as its system MCF7. The data set can be described thus: Potency index, ratio of doxorubicin IC50 to test compound IC50 for human MCF7 cells. The format is functional.
The test system of data set [17] is MCF7. The data set can be described thus: Potency index, ratio of VP-16 IC50 to test compound IC50 for human MCF7 cells. The data set is classed as functional.

From ChEMBL document CHEMBL4152293, “Synthesis and biological evaluation of podophyllotoxin derivatives as selective antitumor agents” (Eur J Med Chem, 2018) come the findings set out here.

Calls of active or inactive are those of the source. The calls are words filed in the database; no cut-off is given here.

`COc1cc([C@@H]2c3cc4c(cc3[C@H](OC(=O)[C@@H]3CCCN3C(=O)OC(C)(C)C)[C@H]3COC(=O)[C@H]23)OCO4)cc(OC)c1OC`: the IC50 is 246 nM in [1], 148 nM in data set [2], 277 nM in data set [3] and 396 nM in data set [4].

Take `CNCC(=O)O[C@H]1c2cc3c(cc2[C@@H](c2cc(OC)c(OC)c(OC)c2)[C@H]2C(=O)OC[C@@H]21)OCO3`: the result in data set [5], in data set [9] and in data set [10] was Active. In addition, the IC50 in data set [1] amounted to 24.9 nM; in data set [2], 6.8 nM; in [3] it was 17.5 nM; in [4], 9.6 nM. The Activity entry in data set [6], in data set [7] and in data set [8] was “Toxic” each time.

For `COc1cc([C@@H]2c3cc4c(cc3[C@H](OC(=O)[C@@H](N)CC(C)C)[C@H]3COC(=O)[C@H]23)OCO4)cc(OC)c1OC`, the half-maximal inhibitory concentration (IC50) in [1] came out at 27.1 nM; in [2], 14.7 nM; in [3], 8.6 nM; in data set [4], 21.6 nM.

Consider `CC[C@H](C)[C@H](NC(=O)OC(C)(C)C)C(=O)O[C@H]1c2cc3c(cc2[C@@H](c2cc(OC)c(OC)c(OC)c2)[C@H]2C(=O)OC[C@@H]21)OCO3`, for which the concentration for half-maximal inhibition (IC50) came out at 690 nM in data set [1], 223 nM in data set [2], 626 nM in data set [3] and 1120 nM in data set [4].

Regarding `COc1cc([C@@H]2c3cc4c(cc3[C@H](OC(=O)[C@@H](N)Cc3ccccc3)[C@H]3COC(=O)[C@H]23)OCO4)cc(OC)c1OC`, the IC50 turned out to be 27.3 nM in data set [1], 3.8 nM in [2], 15.6 nM in data set [3] and 8.9 nM in data set [4].

For `COc1cc([C@@H]2c3cc4c(cc3[C@@H](O[C@@H]3O[C@@H]5CO[C@@H](C)O[C@H]5[C@H](O)[C@H]3O)[C@H]3COC(=O)[C@H]23)OCO4)cc(OC)c1O` [ETOPOSIDE], the IC50 in [1] was greater than 50000 nM; in data set [2] it was 9470 nM; in data set [3], 4720 nM; in data set [4], 3480 nM. In addition, the selectivity ratio in data set [11] was found to be 0.5.

On to `CC[C@H](C)[C@H](NC(=O)c1nc(C)c(C)nc1C)C(=O)O[C@H]1c2cc3c(cc2[C@@H](c2cc(OC)c(OC)c(OC)c2)[C@H]2C(=O)OC[C@@H]21)OCO3`, for which the IC50 in data set [1] turned out to be 348 nM; in data set [2], 119 nM; in [3], 988 nM; in data set [4] it was 420 nM.

On to `COc1cc([C@@H]2c3cc4c(cc3[C@H](OC(=O)CNC(=O)c3nc(C)c(C)nc3C)[C@H]3COC(=O)[C@H]23)OCO4)cc(OC)c1OC`, for which the half-inhibitory concentration (IC50) in data set [1] was 11.7 nM; in [2] it was 9.3 nM; in data set [3] it was 39.9 nM; in data set [4] it was 18.2 nM. Besides, the results for the “Ratio IC50” value in [12] and in [13] were 59 and 4200, respectively.

With `COc1cc([C@@H]2c3cc4c(cc3[C@H](OC(=O)[C@H](C)NC(=O)OC(C)(C)C)[C@H]3COC(=O)[C@H]23)OCO4)cc(OC)c1OC`, the IC50 in data set [1] was found to be 81.5 nM; in [2], 17.3 nM; in data set [3] it was 107 nM; in data set [4], 110 nM.

`COc1cc([C@@H]2c3cc4c(cc3[C@H](OC(=O)c3nc(C)c(C)nc3C)[C@H]3COC(=O)[C@H]23)OCO4)cc(OC)c1OC`: the IC50 in data set [1] is 57.8 nM; in data set [2], 76.9 nM; in data set [3], 63.5 nM; in data set [4] it was 115 nM.

Turning to `COc1cc([C@@H]2c3cc4c(cc3[C@H](OC(=O)CNC(=O)OC(C)(C)C)[C@H]3COC(=O)[C@H]23)OCO4)cc(OC)c1OC`, the IC50 in [1] amounted to 26.6 nM; in [2] it was 1.6 nM; in data set [3], 11.3 nM; in data set [4] it was 7.3 nM. In addition, the figures for the “Ratio IC50” value in [14] and in data set [15] were 140 and 5900, respectively.

Take `COc1cc([C@@H]2c3cc4c(cc3[C@H](OC(=O)CN)[C@H]3COC(=O)[C@H]23)OCO4)cc(OC)c1OC`: the IC50 is 17.5 nM in data set [1], 12.9 nM in data set [2], 7.2 nM in data set [3] and 14.5 nM in data set [4]. Further, the entries for the “Ratio IC50” value in [16] and in data set [17] were 10 and 650, respectively.

Consider `COc1cc([C@@H]2c3cc4c(cc3[C@H](OC(=O)[C@H](CC(C)C)NC(=O)OC(C)(C)C)[C@H]3COC(=O)[C@H]23)OCO4)cc(OC)c1OC`, for which the IC50 in [1] amounted to 106 nM; in data set [2], 130 nM; in data set [3], 110 nM; in data set [4] it was 180 nM.

Turning to `COc1cc([C@@H]2c3cc4c(cc3[C@H](OC(=O)[C@@H]3CCCN3)[C@H]3COC(=O)[C@H]23)OCO4)cc(OC)c1OC`, the IC50 in data set [1] amounted to 12.8 nM; in [2] it was 2.8 nM; in data set [3], 7.6 nM; in data set [4] it was 6.2 nM.

With `COc1cc([C@@H]2c3cc4c(cc3[C@H](OC(=O)CN(C)C(=O)c3nc(C)c(C)nc3C)[C@H]3COC(=O)[C@H]23)OCO4)cc(OC)c1OC`, the IC50 was 58.3 nM in data set [1], 20.1 nM in data set [2], 66.4 nM in data set [3] and 15.8 nM in data set [4].

As to `COc1cc([C@@H]2c3cc4c(cc3[C@H](OC(=O)[C@H](CC(C)C)NC(=O)c3nc(C)c(C)nc3C)[C@H]3COC(=O)[C@H]23)OCO4)cc(OC)c1OC`, the IC50 is 89.1 nM in data set [1], 62.4 nM in data set [2], 127 nM in [3] and 140 nM in data set [4].

As to `COc1cccc2c1C(=O)c1c(O)c3c(c(O)c1C2=O)C[C@@](O)(C(=O)CO)C[C@@H]3O[C@H]1C[C@H](N)[C@H](O)[C@H](C)O1` [DOXORUBICIN], the 50% inhibitory concentration (IC50) in [2] came to 228 nM; in data set [4], 53.3 nM.

Consider `COc1cc([C@@H]2c3cc4c(cc3[C@H](OC(=O)[C@H](C)NC(=O)c3nc(C)c(C)nc3C)[C@H]3COC(=O)[C@H]23)OCO4)cc(OC)c1OC`, for which the IC50 is 26.9 nM in data set [1], 15.8 nM in [2], 15.6 nM in [3] and 25.5 nM in data set [4].

On to `COc1cc([C@@H]2c3cc4c(cc3[C@H](OC(=O)[C@H](Cc3ccccc3)NC(=O)c3nc(C)c(C)nc3C)[C@H]3COC(=O)[C@H]23)OCO4)cc(OC)c1OC`, for which the IC50 in data set [1] was found to be 24.5 nM; in data set [2] it was 8.1 nM; in [3] it was 11.3 nM; in data set [4], 12 nM.

As for `COc1cc([C@@H]2c3cc4c(cc3[C@H](OC(=O)[C@@H]3CCCN3C(=O)c3nc(C)c(C)nc3C)[C@H]3COC(=O)[C@H]23)OCO4)cc(OC)c1OC`, the IC50 in data set [1] is 112 nM; in [2] it was 80.1 nM; in [3], 122 nM; in data set [4] it was 132 nM.

With `COc1cc([C@@H]2c3cc4c(cc3[C@H](OC(=O)[C@H](Cc3ccccc3)NC(=O)OC(C)(C)C)[C@H]3COC(=O)[C@H]23)OCO4)cc(OC)c1OC`, the IC50 in data set [1] was found to be 87.1 nM; in data set [2], 30.2 nM; in [3] it was 95.3 nM; in data set [4] it was 78.4 nM.

With `CC[C@H](C)[C@H](N)C(=O)O[C@H]1c2cc3c(cc2[C@@H](c2cc(OC)c(OC)c(OC)c2)[C@H]2C(=O)OC[C@@H]21)OCO3`, the IC50 in data set [1] was 22.5 nM; in [2], 19.2 nM; in [3] it was 17.3 nM; in data set [4], 11.1 nM.

In the case of `COc1cc([C@@H]2c3cc4c(cc3[C@H](OC(=O)[C@H](C)N)[C@H]3COC(=O)[C@H]23)OCO4)cc(OC)c1OC`, the IC50 worked out at 17.8 nM in data set [1], 13.6 nM in [2], 18.5 nM in [3] and 10.8 nM in [4].
